As usually defined, the mortality is the share of the test organisms that died.

This note sets out measurements from patent US8932613B2, “Ectoparasite control method” (E I du Pont de Nemours and Company, priority 2007, dated 2015).

The test system of one assay is Adult A. aegypti. As to the kind of experiment: Adult A. aegypti contact assay. To be noted: treated flask base, bioassay run for 8 hrs. On the procedure:
Adult A. aegypti were exposed to six rates of the positive control compound permethrin and the experimental compounds diluted with acetone. The dilutions of test compound (3-bromo-1-(3-chloro-2-pyridinyl)-N-[4-cyano-2-methyl-6-[(methylamino)carbonyl]phenyl]-1H-pyrazole-5-carboxamide)used were 0 ppm (acetone only), 0.1 ppm, 1 ppm, 10 ppm, 20 ppm, 50 ppm, 100 ppm, 500 ppm and 1000 ppm. Each rate was replicated 5 times. The test was conducted in 100 mL conical flasks. The entire inside of the flasks was coated with Coatasil the day before the treatments are applied. A 0.5 ml aliquot of each rate was applied to the bases only of the flasks. At 24 hours after the surfaces had been treated adult A. aegypti were anaesthetised using food grade carbon dioxide and 10 mosquitoes were introduced to each conical flask and the mouths of the flasks covered with parafilm. Small holes were made in the parafilm to allow gas exchange. The bioassay was run for 8 hrs at 25±2° C. and relative humidity of approximately 70%.

The test system of assay [1] is cat flea (Ctenocephalides felis Bouche). Description: In vivo evaluation against artificial infestations with cat fleas on mice. The following applies: CD-1 mouse, 10 mg/kg oral in propylene glycol/glycerol formal (60:40), fleas applied 2 h after dosing, evaluated 48 hours after flea application. On the procedure:
For evaluating control of the cat flea (Ctenocephalides felis Bouche), a CD-1® mouse (about 30 g, male, obtained from Charles River Laboratories, Wilmington, Mass.) was orally dosed with test compound in an amount of 10 mg/kg solubilized in propylene glycol/glycerol formal (60:40). Two hours after oral administration of the test compound, approximately 8 to 16 adult fleas were applied to each mouse. The fleas were then evaluated for mortality 48 hours after flea application to the mouse.

Assay [2] concerns Brown Dog Ticks (R. sanguineus). Description: In vivo evaluation against artificial infestations with brown dog ticks on dogs. The following applies: topical, test compound 60 mg/kg line-on in NMP, 9 days post-treatment. The source says: Twenty five dogs were used in this study that investigated the efficacy of test compound (3-bromo-1-(3-chloro-2-pyridinyl)-N-[4-cyano-2-methyl-6-[(methylamino)carbonyl]phenyl]-1H-pyrazole-5-carboxamide)
against fleas and ticks. Two groups (one treated and one untreated) of five dogs were used to evaluate the flea efficacy whilst two groups of five dogs (one treated and one untreated) were used to investigate the tick efficacy. The dogs in the respective groups were infested weekly with 40 unfed adult ticks and 100 cat fleas. One group was treated with ADVANTIX and served as a positive control. The dogs in this group were infested simultaneously with fleas and ticks. Test compound was formulated in NMP. The treatment was applied topically via syringe on the dorsal line of the animals as a line-on at 60 mg/kg dose rate. The efficacy of the compound was assessed by weekly tick and flea counts. The weekly counts generated in the treated groups were compared to the positive and negative untreated control (UTC) group counts to evaluate efficacy of Test compound.

The next assay concerns adult H. irritans exigua. As to the kind of experiment: Adult H. irritans exigua feeding assay (blood meal assay). To be noted: for mortality at 0.2 ppm: 200 ppb in bovine blood; for mortality at 0.4 ppm: 400 ppb in bovine blood; for mortality at 0.6 ppm: 600 ppb in bovine blood. On the procedure: A blood meal assay was used to determine the LC50 for test compound (3-bromo-1-(3-chloro-2-pyridinyl)-N-[4-cyano-2-methyl-6-[(methylamino)carbonyl]phenyl]-1H-pyrazole-5-carboxamide) on adult H. irritans exigua. Six (6) serial dilutions of the test compound were prepared in decoagulated bovine blood that was stored refrigerated. Ivermectin was included as a positive control compound and a negative control was included in each assay. Flies were collected with a net immediately before each assay from yarded commercial cattle. About 100 adults were introduced into a mesh cage (30×30×30 cm) containing one cotton gauze (4×4×1 cm) soaked in one blood/insecticide concentration. There were 3 replicate cages of each blood/insecticide concentration. Blood gauzes were replaced every 12 hours. The untreated control cages received untreated decoagulated blood. All cages were labelled and stored for 72 hours at 25-27° C. in the dark at ambient relative humidity (70-85%). […] At 72-96 hours all flies were counted and percentage mortality was calculated. Data was subjected to log-probit analysis to determine the LC50 if there is a dose response in the assay.

In the assay on Adult A. aegypti, `CC1(C)C(C=C(Cl)Cl)C1C(=O)OCc1cccc(Oc2ccccc2)c1` (stereo not shown) [Permethrin, reference compound] registered an LC90 of 0.046 ug/flask.
The compound `CNC(=O)c1cc(C#N)cc(C)c1NC(=O)c1cc(Br)nn1-c1ncccc1Cl` [Test compound, 3-bromo-1-(3-chloro-2-pyridinyl)-N-[4-cyano-2-methyl-6-[(methylamino)carbonyl]phenyl]-1H-pyrazole-5-carboxamide] gave a flea mortality in assay [1] of 45%. Besides, in assay [2], the efficacy against ticks entry is “over 94.9%”. In the assay with Adult A. aegypti, this compound returned an LC90 of 0.033 ug/flask. In the assay on adult H. irritans exigua (exposure time 7 hr), this compound showed a mortality at 0.2 ppm of 77.3%, a mortality at 0.4 ppm of 78.8% and a mortality at 0.6 ppm of 80.5%. Also, in the assay on adult H. irritans exigua (exposure time 17 hr), the mortality at 0.2 ppm was 78.8%, the mortality at 0.4 ppm came to 89.8% and the mortality at 0.6 ppm turned out to be 94.7%. In the assay on adult H. irritans exigua (exposure time 24 hr), this compound returned a mortality at 0.2 ppm of 80.3%, a mortality at 0.4 ppm of 94.9% and a mortality at 0.6 ppm of 96.5%.
